Laboratory results from patent US8642657B2 (Gruenenthal GmbH, priority 2003, dated 2014).

Assays:
[1] = target: T1, rat VR1 (Rattus norvegicus, UniProt O35433); assay: [3H]resiniferatoxin (RTX) competition binding assay, VR1-transfected CHO cells
T1 construct: expressed in transfected cells
Procedure: The pUHG102 VR1 plasmid was transfected into CHO cells containing the pTet Off regulatory plasmid (Clontech). In these cells, expression of the VR1 is repressed in the presence of tetracycline but is induced upon removal of the antibiotic. Stable clones were isolated in culture medium containing puromycin (10 μg/mL) and maintained in HAM F12 medium supplemented with tetracycline (1 μg/mL), 5 μg/ml geniticin, 25 mM HEPES, 10% FBS. Cells utilized for assays were grown in culture medium without antibiotic for 48 h before use. Cells were seeded in T75 cell culture flasks in media without antibiotics and grown to approximately 90% confluence. The flasks were then washed with PBS and harvested in 0.25% trypsin, 1 mM EDTA. The cells were pelleted by gentle centrifugation and stored at −20° C. until assay.
Competition Binding Assay
Binding studies with [^3H]resiniferatoxin (RTX) were carried out as described previously with minor modifications (Szallasi et al., 1992). Binding assay mixtures were set up on ice and contained 50-100 pM [^3H]RTX, various concentrations of competing ligands, 0.25 mg/mL BSA (Cohn fraction V), and about 5×10^5 VR1-transfected cells. The final volume was adjusted to 350 μL with DPBS with Ca^2+ and Mg^2+ and 0.25 mg/mL bovine serum albumin. Non-specific binding was determined in the presence of 100 nM nonradioactive RTX. The binding reaction was initiated by transferring the assay mixtures to a 37° C. water bath and was terminated after a 60 min incubation period by cooling the tubes on ice. To reduce non-specific binding, 200 μg/ml α-glycoprotein was added. Membrane-bound RTX was then separated from the free by pelleting the membranes in a Beckman 12 benchtop centrifuge (15 min, maximal velocity), the tips of the tubes containing the pellets were cut off, and the radioactivity was determined by scintillation counting. Equilibrium binding parameters (Ki and cooperativity) were determined by fitting the Hill equation to the measured values with the aid of the program MicroCal Origin 6.0.
(§1) Initial stocks were dissolved in DMSO. For the binding assays, compounds were diluted in with DPBS with Ca^2+ and Mg^2+ and 0.25 mg/mL bovine serum albumin. For the calcium uptake assays, compounds were diluted in DMEM with 0.25 mg/mL bovine serum albumin.

[2] = target: T1, rat VR1; assay: 45Ca2+-uptake assay in CHO/VR1 cells, antagonism of capsaicin-stimulated uptake; type: cell-based; details: 45Ca2+ uptake stimulated by 50 nM capsaicin
Procedure: as §1
Molecules were characterized to determine whether they were full agonists, partial agonists, or antagonists. For studies of ^45Ca^2+ uptake by CHO/VR1 cells (Tet-off cells), the cells were plated in 24-well plates to yield a cell density 20-40% of that required to produce confluence. The next day the medium was changed to remove the tetracycline and induce VR1 expression. Experiments were performed approximately 36-40 hours after induction. For ^45Ca^2+ uptake assay, cells were incubated for 5 min at 37° C. in a total volume of 400 μL of serum free DMEM (containing 1.8 mM CaCl2) in the presence of 0.25 mg/mL BSA (Sigma), 1 μCi/mL ^45Ca^2+ (5-30 Ci/g from ICN, CA), and increasing concentrations of the compound to be tested. Immediately after the incubation, extracellular ^45Ca^2+ was removed by washing the cells three times with cold DPBS (containing 1.8 mM CaCl2). Then 400 μl RIPA buffer (50 mM Tris pH 7.4; 150 mM NaCl; 1% Triton X-100; 0.1% SDS; 1% sodium deoxycholate) was added to each well in order to lyse the cells. Plates were shaken slowly for 20 min; then 306 μL of cell lysate was transferred from each well into a scintillation vial and radioactivity was determined by scintillation counting. For each data point in each experiment, four wells were assayed. Data from these experiments were analyzed by computer fit to the Hill equation. At least 3 separate experiments were carried out for each compound. In order to determine antagonist activity, studies were performed in exactly the same fashion with the exception that 50 nM capsaicin was added to the assay mixture to stimulate ^45Ca^2+ uptake.

[3] = competition with [3H]RTX, rat VR1 in CHO cells, read-out: Ki (nM) Binding Affinity

T1 sequence (O35433 whole entry): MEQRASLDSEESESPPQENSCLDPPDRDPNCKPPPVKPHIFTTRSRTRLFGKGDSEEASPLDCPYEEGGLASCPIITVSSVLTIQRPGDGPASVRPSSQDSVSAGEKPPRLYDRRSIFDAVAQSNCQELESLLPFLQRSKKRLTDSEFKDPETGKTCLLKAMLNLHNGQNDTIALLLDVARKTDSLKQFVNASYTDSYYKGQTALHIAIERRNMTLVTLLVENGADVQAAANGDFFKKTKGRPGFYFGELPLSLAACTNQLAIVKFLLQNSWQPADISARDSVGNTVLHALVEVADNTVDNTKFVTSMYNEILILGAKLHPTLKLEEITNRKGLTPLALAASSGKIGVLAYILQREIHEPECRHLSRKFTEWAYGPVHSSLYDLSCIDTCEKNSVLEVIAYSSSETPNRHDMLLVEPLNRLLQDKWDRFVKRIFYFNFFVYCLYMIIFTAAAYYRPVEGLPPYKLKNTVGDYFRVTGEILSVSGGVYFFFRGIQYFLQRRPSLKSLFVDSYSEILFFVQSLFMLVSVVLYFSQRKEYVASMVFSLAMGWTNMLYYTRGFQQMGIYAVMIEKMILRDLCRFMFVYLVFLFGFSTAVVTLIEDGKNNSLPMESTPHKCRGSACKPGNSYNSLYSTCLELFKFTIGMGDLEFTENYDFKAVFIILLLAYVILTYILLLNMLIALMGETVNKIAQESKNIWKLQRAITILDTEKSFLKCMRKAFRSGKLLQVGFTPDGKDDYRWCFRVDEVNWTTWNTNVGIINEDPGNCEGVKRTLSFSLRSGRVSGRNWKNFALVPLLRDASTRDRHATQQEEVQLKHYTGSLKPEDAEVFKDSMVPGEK

CC(C)(C)c1ccc(CNC(=S)NC(C)(C)c2ccc(NS(C)(=O)=O)c(F)c2)cc1 [21-8, N-(4-t-Butylbenzyl)-N′-{1-methyl-1-[3-fluoro-4-(methylsulfonylamino)phenyl]ethyl}thiourea]
Ki [1, 3]: 7740 nM
melting point: 83 to 85 °C
Ki [2]: 983 nM

COc1cc(C2(C(=O)NCCCc3ccc(C)c(C)c3)CC2)ccc1NS(C)(=O)=O [12-6, N-[3-(3,4-Dimethylphenyl)propyl]-1-[3-methoxy-4-(methylsulfonylamino)phenyl]cyclopropanecarboxamide]
Ki [1]: 1700 nM
melting point: 88 to 89 °C
Ki [2]: 1240 nM

Cc1ccc(CCCNC(=O)[C@H](C)c2ccc(NS(C)(=O)=O)c(F)c2)cc1C [4-16, N-[3-(3,4-Dimethylphenyl)propyl]-(2R)-2-[3-fluoro-4-(methylsulfonylamino)phenyl]propionamide]
Ki [1, 3]: 944 nM
Ki [2]: 204 nM

CC(C(=O)NCc1ccc(C(C)(C)C)cc1)c1ccc(NS(C)(=O)=O)c(I)c1 (stereo not shown) [1-54, N-(4-tert-Butylbenzyl)-2-[3-iodo-4-(methylsulfonylamino)phenyl]propionamide]
Ki [1, 3]: 23.3 nM
melting point: 71 °C
Ki [2]: 29.9 nM

CC(C)(C)c1ccc(CNC(=S)NC(C)(C)c2ccc(NS(C)(=O)=O)cc2)cc1 [21-7, N-(4-t-Butylbenzyl)-N′-{1-methyl-1-[4-(methylsulfonylamino)phenyl]ethyl}thiourea]
melting point: 161 to 164 °C
Ki [2]: 1830 nM

Cc1ccc(CCCNC(=O)C2(c3ccc(NS(C)(=O)=O)cc3)CC2)cc1C [12-4, N-[3-(3,4-Dimethylphenyl)propyl]-1-[4-(methylsulfonylamino)phenyl]cyclopropanecarboxamide]
Ki [1]: 1740 nM
melting point: 127 to 128 °C
Ki [2]: 1100 nM

CC(NC(=O)CCc1ccc(C(C)(C)C)cc1)c1ccc(NS(C)(=O)=O)c(F)c1 (stereo not shown) [24-2, N-{1-[3-Fluoro-4-(methylsulfonylamino)phenyl]ethyl}-3-(4-tert-butylphenyl)propanamide]
Ki [1, 3]: 376 nM
melting point: 152 to 154 °C
Ki [2]: 103 nM

C[C@@H](NC(=S)NC[C@@H](COC(=O)C(C)(C)C)Cc1ccc(C(C)(C)C)cc1)c1ccc(NS(C)(=O)=O)cc1 [18-12, N-[(2S)-2-(4-tert-Butylbenzyl)-3-(pivaloyloxy)propyl]-N′-{(1R)-1-[4-(methylsulfonylamino)phenyl]ethyl}thiourea]
Ki [1]: 8.09 nM
melting point: 88 to 90 °C
Ki [2]: 30.6 nM

C[C@H](C(=O)NCc1ccc(C(C)(C)C)cc1)c1ccc(NS(C)(=O)=O)c(F)c1 [3-5, N-(4-tert-Butylbenzyl)-(2S)-2-[3-fluoro-4-(methylsulfonylamino)phenyl]propionamide]
Ki [1]: 43.9 nM
Ki [2]: 6.87 nM

CC(C(=O)NCc1ccc(C(C)(C)C)cc1)c1ccc(NS(C)(=O)=O)c(Cl)c1 (stereo not shown) [1-52, N-(4-tert-Butylbenzyl)-2-[3-chloro-4-(methylsulfonylamino)phenyl]propionamide]
Ki [1, 3]: 30.7 nM
melting point: 126 to 129 °C
Ki [2]: 29.5 nM

C[C@H](NC(=S)NCc1ccc(C(C)(C)C)cc1)c1ccc(NS(C)(=O)=O)c(F)c1 [17-8, (S)—N-(4-t-Butylbenzyl)-N′-{1-[3-fluoro-4-(methylsulfonylamino)phenyl]ethyl}thiourea]
Ki [1]: 2580 nM
Ki [2]: 4310 nM

C[C@@H](NC(=S)NCc1ccc(C(C)(C)C)cc1)c1ccc(NS(C)(=O)=O)c(F)c1 [17-7, (R)—N-(4-t-Butylbenzyl)-N′-{1-[3-fluoro-4-(methylsulfonylamino)phenyl]ethyl}thiourea]
Ki [1]: 32.8 nM
Ki [2]: 39.4 nM

COc1ccc(CNC(=O)C(C)c2ccc(NS(C)(=O)=O)c(F)c2)cc1 (stereo not shown) [4-9, N-(4-Methoxybenzyl)-2-[3-fluoro-4-(methylsulfonylamino)phenyl]propionamide]
melting point: 138 °C
Ki [2]: 1350 nM

Oc1cc2c(cc1O)CN(C(=S)NCCc1ccc(Cl)cc1)CCC2 [capsazepine, reference compound]
Ki [1, 3]: 1300 nM
Ki [2]: 520 nM

C[C@@H](NC(=S)N[C@H](COC(=O)C(C)(C)C)Cc1ccccc1)c1ccc(NS(C)(=O)=O)cc1 [19-14, N-[(2S)-3-phenyl-1-pivaloyloxy-2-propyl]-N′-[(R)-α-methyl-4-(methylsulfonylamino)benzy]thiourea]
Ki [1]: 272 nM
Ki [2]: 290 nM

C[C@@H](C(=O)NC[C@@H](COC(=O)C(C)(C)C)Cc1ccccc1)c1ccc(NS(C)(=O)=O)c(F)c1 [6-7, N-[(2S)-2-Benzyl-3-(pivaloyloxy)propyl]-(2R)-2-[3-fluoro-4-(methylsulfonylamino)phenyl]propionamide]
Ki [1, 3]: 372 nM
Ki [2]: 205 nM

C[C@@H](C(=O)NC[C@H](COC(=O)C(C)(C)C)Cc1ccccc1)c1ccc(NS(C)(=O)=O)c(F)c1 [6-8, N-[(2R)-2-Benzyl-3-(pivaloyloxy)propyl]-(2R)-2-[3-fluoro-4-(methylsulfonylamino)phenyl]propionamide]
Ki [1, 3]: 297 nM
Ki [2]: 98.3 nM

Cc1ccc(C[C@H](CNC(=S)N[C@H](C)c2ccc(NS(C)(=O)=O)cc2)COC(=O)C(C)(C)C)cc1C [18-7, N-[(2R)-2-(3,4-Dimethylbenzyl)-3-(pivaloyloxy)propyl]-N′-{(1R)-1-[4-(methylsulfonylamino)phenyl]ethyl}thiourea]
Ki [1]: 15.2 nM
Ki [2]: 7.14 nM

Cc1ccc(CCCNC(=O)[C@@H](C)c2ccc(NS(C)(=O)=O)c(F)c2)cc1C [4-17, N-[3-(3,4-Dimethylphenyl)propyl]-(2S)-2-[3-fluoro-4-(methylsulfonylamino)phenyl]propionamide]
Ki [1]: 236 nM
Ki [2]: 33.7 nM

C[C@H](C(=O)NC[C@@H](COC(=O)C(C)(C)C)Cc1ccccc1)c1ccc(NS(C)(=O)=O)c(F)c1 [6-6, N-[(2S)-2-Benzyl-3-(pivaloyloxy)propyl]-(2S)-2-[3-fluoro-4-(methylsulfonylamino)phenyl]propionamide]
Ki [1, 3]: 20.3 nM
Ki [2]: 10 nM

Cc1ccc(CC(CNC(=S)N[C@H](C)c2ccc(NS(C)(=O)=O)cc2)COC(=O)C(C)(C)C)cc1C (stereo partly drawn) [18-6, N-[2-(3,4-Dimethylbenzyl)-3-(pivaloyloxy)propyl]-N′-{(1R)-1-[4-(methylsulfonylamino)phenyl]ethyl}thiourea]
Ki [1]: 6.1 nM
Ki [2]: 6.86 nM

Cc1ccc(CCC(=O)NC(C)c2ccc(NS(C)(=O)=O)c(F)c2)cc1C (stereo not shown) [24-4, N-{1-[3-Fluoro-4-(methylsulfonylamino)phenyl]ethyl}-3-(3,4-dimethylphenyl)propanamide]
melting point: 176 to 177 °C
Ki [2]: 4130 nM

N-{1-[3-Fluoro-4-(methylsulfonylamino)phenyl]ethyl}-3-(4-chlorophenyl)propenamide [24-6]
Ki [2]: 5650 nM

C[C@@H](C(=O)NCc1ccc(C(C)(C)C)cc1)c1ccc(NS(C)(=O)=O)c(F)c1 [3-6, N-(4-tert-Butylbenzyl)-(2R)-2-[3-fluoro-4-(methylsulfonylamino)phenyl]propionamide]
Ki [1]: 458 nM
Ki [2]: 102 nM

N-(4-t-Butylbenzyl)-N-{1-[4-(methylsulfonylamino)phenyl]ethyl}thiourea [15-1]
Ki [1, 3]: 59.3 nM
Ki [2]: 14.7 nM

C[C@@H](NC(=S)NCc1ccc(C(C)(C)C)cc1)c1ccc(NS(C)(=O)=O)cc1 [16-5, N-(4-t-Butylbenzyl)-N′-{(1R)-1-[4-(methylsulfonylamino)phenyl]ethyl}thiourea]
Ki [1, 3]: 40.8 nM
Ki [2]: 4.52 nM
